# According to patent US20050049197A1, “Induction of immune response against desired determinants” (Epimmune Inc., priority 1993, published 2005):
# Non-standard residues stand in square brackets, D forms with d. Residues, ends and D or L forms follow the SMILES beside them. Cha = N[C@@H](CC1CCCCC1)C(=O)O
# Tests used:
# [1] = system: DR2w2b; parameters: species or system human; conditions: read-out: Binding Activity DR2wB2, IC50
# [2] = system: DR3; parameters: species or system human; conditions: read-out: Binding Activity DR3, IC50
# [3] = system: DR5; parameters: species or system human; conditions: read-out: Binding Activity DR5, IC50
# [4] = system: DQ3.1; parameters: species or system human; conditions: read-out: Binding Activity DQ3.1, IC50
# [5] = system: PBMC from normal individuals; test: In vitro T cell proliferative responses of human PBMC ([3H]thymidine incorporation); assay type: cell-based; conditions: for AVERAGE S.I. / AVERAGE ΔMAX CPM: average of 5 donors; for X144 (Δmax cpm) / X144 S.I.: donor X144; for X162 (Δmax cpm) / X162 S.I.: donor X162; for X349 (Δmax cpm) / X349 S.I.: donor X349; for X372 (Δmax cpm) / X372 S.I.: donor X372; for X460 (Δmax cpm) / X460 S.I.: donor X460
# [6] = biological target: DRw53 (Homo sapiens, UniProt P01903+P13762); test: biochemical; assay type: binding
# [7] = system: P. yoelii sporozoites; test: Inhibition of liver stage development assay (ILSDA), mouse hepatocytes infected with P. yoelii sporozoites; assay type: cell-based; conditions: sera of immunized mice, dilution not stated
# Experimental: In certain experiments, peptides were emulsified in complete Freund's adjuvant (CFA) and injected subcutaneously (S.C.) at the base of the tail in 100 μl volume containing 100 μg of peptide. Mice were boosted with 100 μg of peptide emulsified in 100 μl of incomplete Freund's adjuvant (IFA) 1 month later. Mice were bled just prior to boosting, and 2 weeks after boosting.
# All cell culture reagents were obtained from quality Biological, Gaithersburg, Md. The slides were incubated overnight at 37° C. in a 5% CO2/95% air environment. The medium was changed the following day and fresh medium containing dexamethasone (7×10^−5) was added to the cultures.
# The 17XNL (nonlethal) strain of P. yoelii or the NF54 strain of P. falciparum were used for murine and human hepatocyte in vitro infections, respectively.
# Briefly, 25 μl of the serum samples, diluted to 2× their final concentration, were added to triplicate chamber-slide wells. P. yoeilli or P. falciparum sporozoites, 75,000/well, were then added in a volume of 25 μl to the mouse or human hepatocyte cultures respectively. The cultures were incubated for 3 h, then washed extensively with fresh medium to remove unattached sporozoites. The infected hepatocytes were then incubated for a further 2 (P. yoelii) or 5 days (P. falciparum) with the medium being changed each day of culture. The slides were fixed and immunostained with either a P. yoelii- or P. falciparum-specific monoclonal antibody. Schizonts were counted from the triplicate cultures and the percent inhibition determined as follows: control−test/control×100. Sera from mice injected with CFA (first dose) and IFA (second and third doses) served as the negative controls.
# Chain of DRw53 (P01903 26-254): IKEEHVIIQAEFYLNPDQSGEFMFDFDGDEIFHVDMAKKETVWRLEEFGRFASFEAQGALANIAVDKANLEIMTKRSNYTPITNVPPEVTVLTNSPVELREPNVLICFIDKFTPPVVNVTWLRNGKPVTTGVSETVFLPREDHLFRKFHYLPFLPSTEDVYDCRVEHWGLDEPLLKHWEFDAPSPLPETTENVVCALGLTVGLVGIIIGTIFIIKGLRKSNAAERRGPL
# Chain of DRw53 (P13762 30-266): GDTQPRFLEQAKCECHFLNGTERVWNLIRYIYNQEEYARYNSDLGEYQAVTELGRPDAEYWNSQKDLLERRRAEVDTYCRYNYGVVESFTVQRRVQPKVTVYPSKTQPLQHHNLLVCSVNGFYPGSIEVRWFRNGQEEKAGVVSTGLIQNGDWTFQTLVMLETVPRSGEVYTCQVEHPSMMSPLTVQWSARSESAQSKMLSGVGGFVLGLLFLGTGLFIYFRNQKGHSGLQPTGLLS
Compound,IC50 [1] [µM],IC50 [4] [µM],AVERAGE S.I. ([5]; 2nd Stimulation),AVERAGE ΔMAX CPM ([5]; 2nd Stimulation) [cpm],X144 (Δmax cpm) ([5]; 2nd Stimulation) [cpm],X144 S.I. ([5]; 2nd Stimulation),X162 (Δmax cpm) ([5]; 2nd Stimulation) [cpm],X162 S.I. ([5]; 2nd Stimulation),X349 (Δmax cpm) ([5]; 2nd Stimulation) [cpm],X349 S.I. ([5]; 2nd Stimulation),X372 (Δmax cpm) ([5]; 2nd Stimulation) [cpm],X372 S.I. ([5]; 2nd Stimulation),X460 (Δmax cpm) ([5]; 2nd Stimulation) [cpm],X460 S.I. ([5]; 2nd Stimulation),AVERAGE S.I. ([5]; 3rd Stimulation),AVERAGE ΔMAX CPM ([5]; 3rd Stimulation) [cpm],X144 (Δmax cpm) ([5]; 3rd Stimulation) [cpm],X144 S.I. ([5]; 3rd Stimulation),X162 (Δmax cpm) ([5]; 3rd Stimulation) [cpm],X162 S.I. ([5]; 3rd Stimulation),other results
CC(C)C[C@H](NC(=O)[C@@H](NC(=O)[C@H](CC(N)=O)NC(=O)[C@H](C)NC(=O)[C@H](C)NC(=O)[C@@H](NC(=O)[C@H](CC1CCCCC1)NC(=O)[C@H](CCCCN)NC(=O)[C@@H](C)N)C(C)C)[C@@H](C)O)C(=O)N[C@@H](CCCCN)C(=O)N[C@@H](C)C(=O)N[C@@H](C)C(=O)N[C@H](C)C(N)=O [965.08],0.0038,> 10,1.7,11208,8440,1.3,9234,2.6,9065,1.8,23017,1.6,6286,1.4,2,12070,3559,1.4,14622,2.3,IC50 [2]: 0.25 µM; IC50 [3]: 0.008 µM; X349 (Δmax cpm) ([5]; 3rd Stimulation): 31639 cpm; X349 S.I. ([5]; 3rd Stimulation): 2.8; X372 (Δmax cpm) ([5]; 3rd Stimulation): 8710 cpm; X372 S.I. ([5]; 3rd Stimulation): 1.9; X460 (Δmax cpm) ([5]; 3rd Stimulation): 1820 cpm; X460 S.I. ([5]; 3rd Stimulation): 1.6
CC(C)C[C@H](NC(=O)[C@@H](NC(=O)[C@H](Cc1ccc(O)cc1)NC(=O)[C@H](C)NC(=O)[C@H](C)NC(=O)[C@@H](NC(=O)[C@H](CC1CCCCC1)NC(=O)[C@H](CCCCN)NC(=O)[C@@H](C)N)C(C)C)[C@@H](C)O)C(=O)N[C@@H](CCCCN)C(=O)N[C@@H](C)C(=O)N[C@@H](C)C(=O)N[C@H](C)C(N)=O [965.09],0.0074,> 10,1.9,12059,13693,1.8,10710,1.1,18079,3.8,17813,1.6,0,1,4.1,22599,14087,2.6,35635,5.2,IC50 [2]: 0.25 µM; IC50 [3]: 0.0054 µM; IC50 [6]: 0.0864 µM; X349 (Δmax cpm) ([5]; 3rd Stimulation): 31811 cpm; X349 S.I. ([5]; 3rd Stimulation): 5.5; X372 (Δmax cpm) ([5]; 3rd Stimulation): 29159 cpm; X372 S.I. ([5]; 3rd Stimulation): 4.4; X460 (Δmax cpm) ([5]; 3rd Stimulation): 2301 cpm; X460 S.I. ([5]; 3rd Stimulation): 2.9
CC(C)C[C@H](NC(=O)[C@@H](NC(=O)[C@H](Cc1c[nH]cn1)NC(=O)[C@H](C)NC(=O)[C@H](C)NC(=O)[C@@H](NC(=O)[C@H](CC1CCCCC1)NC(=O)[C@H](CCCCN)NC(=O)[C@@H](C)N)C(C)C)[C@@H](C)O)C(=O)N[C@@H](CCCCN)C(=O)N[C@@H](C)C(=O)N[C@@H](C)C(=O)N[C@H](C)C(N)=O [965.15],0.0054,> 10,1.8,7920,7179,1.4,8461,3.4,10848,1.8,10011,1.3,3100,1.2,2.5,15462,13055,2.4,12309,1.6,IC50 [2]: 1.39 µM; IC50 [3]: 0.0299 µM; IC50 [6]: 0.0792 µM; X349 (Δmax cpm) ([5]; 3rd Stimulation): 20653 cpm; X349 S.I. ([5]; 3rd Stimulation): 2.4; X372 (Δmax cpm) ([5]; 3rd Stimulation): 30810 cpm; X372 S.I. ([5]; 3rd Stimulation): 4.7; X460 (Δmax cpm) ([5]; 3rd Stimulation): 486 cpm; X460 S.I. ([5]; 3rd Stimulation): 1.2
CC(C)C[C@H](NC(=O)[C@@H](NC(=O)[C@H](C)NC(=O)[C@H](C)NC(=O)[C@H](C)NC(=O)[C@@H](NC(=O)[C@H](CC1CCCCC1)NC(=O)[C@H](CCCCN)NC(=O)[C@@H](C)N)C(C)C)[C@@H](C)O)C(=O)N[C@@H](CCCCN)C(=O)N[C@@H](C)C(=O)N[C@@H](C)C(=O)N[C@H](C)C(N)=O [965.16],0.0061,> 10,1.3,1843,4388,1.2,4090,2.1,0,1,736,1,0,1,1.5,5955,5220,1.5,4762,1.9,IC50 [3]: 0.0167 µM; X349 (Δmax cpm) ([5]; 3rd Stimulation): 9316 cpm; X349 S.I. ([5]; 3rd Stimulation): 1.6; X372 (Δmax cpm) ([5]; 3rd Stimulation): 10439 cpm; X372 S.I. ([5]; 3rd Stimulation): 1.7; X460 (Δmax cpm) ([5]; 3rd Stimulation): 37 cpm; X460 S.I. ([5]; 3rd Stimulation): 1
CC(C)C[C@H](NC(=O)[C@@H](NC(=O)[C@H](Cc1c[nH]c2ccccc12)NC(=O)[C@H](C)NC(=O)[C@H](C)NC(=O)[C@@H](NC(=O)[C@H](CC1CCCCC1)NC(=O)[C@H](CCCCN)NC(=O)[C@H](C)N)C(C)C)[C@@H](C)O)C(=O)N[C@@H](CCCCN)C(=O)N[C@@H](C)C(=O)N[C@@H](C)C(=O)N[C@@H](C)C(N)=O [965.17],0.0059,> 10,2.4,12738,17391,1.7,6323,2,26512,5.6,8471,1.3,4994,1.3,3.5,25399,32665,4.1,28065,4.1,IC50 [6]: 0.17 µM; X349 (Δmax cpm) ([5]; 3rd Stimulation): 31983 cpm; X349 S.I. ([5]; 3rd Stimulation): 4; X372 (Δmax cpm) ([5]; 3rd Stimulation): 30661 cpm; X372 S.I. ([5]; 3rd Stimulation): 3.2; X460 (Δmax cpm) ([5]; 3rd Stimulation): 3619 cpm; X460 S.I. ([5]; 3rd Stimulation): 2.2
"CC(C)C[C@H](NC(=O)[C@@H](NC(=O)[C@H](Cc1c[nH]c2ccccc12)NC(=O)[C@H](C)NC(=O)[C@H](C)NC(=O)[C@@H](NC(=O)[C@H](CC1CCCCC1)NC(=O)[C@H](CCCCN)NC(=O)[C@@H](C)N)C(C)C)[C@@H](C)O)C(=O)N[C@@H](CCCCN)C(=O)N[C@@H](C)C(=O)N[C@H](C)C(=O)N[C@@H](CCC(N)=O)C(=O)NCC(=O)N1CCC[C@H]1C(=O)NCC(=O)N[C@@H](C)C(=O)N1CCC[C@H]1C(=O)N[C@@H](CCC(N)=O)C(=O)NCC(=O)N1CCC[C@H]1C(=O)NCC(=O)N[C@@H](C)C(=O)N1CCC[C@H]1C(=O)N[C@@H](CCC(N)=O)C(=O)NCC(=O)N1CCC[C@H]1C(=O)NCC(=O)N[C@@H](C)C(=O)N1CCC[C@H]1C(=O)N[C@@H](CCC(N)=O)C(=O)NCC(=O)N1CCC[C@H]1C(=O)NCC(=O)N[C@@H](C)C(=O)N1CCC[C@H]1C(=O)NCC(=O)NCC(=O)N[C@@H](CO)C(=O)O [PADRE ®-PyB, aKXVAAWTLKAa(QGPGAP)4GGS] (H-[dA]K[Cha]VAAWTLKA[dA]QGPGAPQGPGAPQGPGAPQGPGAPGGS-OH; N-terminus and C-terminus assumed)",–,–,–,–,–,–,–,–,–,–,–,–,–,–,–,–,–,–,–,–,inhibition of P. yoelii sporozoite invasion and development in murine hepatocytes [7]: approximately 90%
